Reference: the OPERA property sets (Mansouri et al. 2018)
Converted amounts (≈) assume the structure as drawn.

Details: 25 °C

| Structure (SMILES) | solubility [mM] |
| --- | --- |
| Cn1c(=O)on(-c2ccc(Cl)c(Cl)c2)c1=O | 0.00575 (≈ 1.5 µg/mL) |
| O=C1C2CC=CCC2C(=O)N1SC(Cl)(Cl)Cl (stereo not drawn) | 0.017 (≈ 5.1 µg/mL) |
| CCCSP(=O)(OCC)SCCC | 3.09 (≈ 750 µg/mL) |
| CC(C)C(Nc1ccc(C(F)(F)F)cc1Cl)C(=O)OC(C#N)c1cccc(Oc2ccccc2)c1 (stereo not drawn) | 6.29e-06 (≈ 0.00316 µg/mL) |
| CC(C)(C)C(=O)C(Oc1ccc(Cl)cc1)n1cncn1 (stereo not drawn) | 0.243 (≈ 71.5 µg/mL) |
| COP(=O)(NC(C)=O)SC (stereo not drawn) | 4470 (≈ 818000 µg/mL) |
| CC(C)NC(=O)N1CC(=O)N(c2cc(Cl)cc(Cl)c2)C1=O | 0.0421 (≈ 13.9 µg/mL) |
| c1ccc2[nH]c(-c3cscn3)nc2c1 | 0.248 (≈ 50 µg/mL) |
| CCN(CC)C(=O)SCc1ccc(Cl)cc1 | 0.109 (≈ 28 µg/mL) |
| COC(=O)Nc1cccc(OC(=O)Nc2cccc(C)c2)c1 | 0.0161 (≈ 4.85 µg/mL) |
| CC(C)[C@H](C(=O)OC(C#N)c1cccc(Oc2ccccc2)c1)c1ccc(OC(F)F)cc1 (stereo partly drawn) | 0.000133 (≈ 0.06 µg/mL) |
| CNC(=O)Oc1ccc(SC)c(C)c1 | 0.107 (≈ 22.5 µg/mL) |
| COC(=O)c1ccccc1CS(=O)(=O)NC(=O)Nc1nc(OC)cc(OC)n1 | 0.292 (≈ 120 µg/mL) |
